ChEMBL document CHEMBL4028801, “A multifactorial approach to hepatobiliary transporter assessment enables improved therapeutic compound development” (Toxicol Sci, 2013)
Where a name gives a salt, the structure may show the parent alone.

Experiments:
[1] = Ratio of drug concentration at steady state in human at 20 to 80 mg, po QD after 24 hrs to IC50 for human MRP3 overexpressed in Sf9 insect cells; type: ADME, organism-based; conditions: in vivo
[2] = Ratio of drug concentration at steady state in human at 20 to 80 mg, po QD after 24 hrs to IC50 for human BSEP overexpressed in Sf9 insect cells; type: ADME, organism-based; conditions: in vivo
[3] = AUC in human at 20 to 80 mg, po QD after 24 hrs; type: ADME, organism-based; conditions: in vivo
[4] = molecular target: ATP-binding cassette sub-family C member 3 (Homo sapiens, UniProt O15438); test: Inhibition of human MRP3 overexpressed in Sf9 insect cell membrane vesicles assessed as uptake of [3H]-estradiol-17beta-D-glucuronide in presence of ATP and GSH measured after 10 mins by membrane vesicle transport assay; type: ADME, cell-based
Chain of ATP-binding cassette sub-family C member 3 (O15438 whole entry): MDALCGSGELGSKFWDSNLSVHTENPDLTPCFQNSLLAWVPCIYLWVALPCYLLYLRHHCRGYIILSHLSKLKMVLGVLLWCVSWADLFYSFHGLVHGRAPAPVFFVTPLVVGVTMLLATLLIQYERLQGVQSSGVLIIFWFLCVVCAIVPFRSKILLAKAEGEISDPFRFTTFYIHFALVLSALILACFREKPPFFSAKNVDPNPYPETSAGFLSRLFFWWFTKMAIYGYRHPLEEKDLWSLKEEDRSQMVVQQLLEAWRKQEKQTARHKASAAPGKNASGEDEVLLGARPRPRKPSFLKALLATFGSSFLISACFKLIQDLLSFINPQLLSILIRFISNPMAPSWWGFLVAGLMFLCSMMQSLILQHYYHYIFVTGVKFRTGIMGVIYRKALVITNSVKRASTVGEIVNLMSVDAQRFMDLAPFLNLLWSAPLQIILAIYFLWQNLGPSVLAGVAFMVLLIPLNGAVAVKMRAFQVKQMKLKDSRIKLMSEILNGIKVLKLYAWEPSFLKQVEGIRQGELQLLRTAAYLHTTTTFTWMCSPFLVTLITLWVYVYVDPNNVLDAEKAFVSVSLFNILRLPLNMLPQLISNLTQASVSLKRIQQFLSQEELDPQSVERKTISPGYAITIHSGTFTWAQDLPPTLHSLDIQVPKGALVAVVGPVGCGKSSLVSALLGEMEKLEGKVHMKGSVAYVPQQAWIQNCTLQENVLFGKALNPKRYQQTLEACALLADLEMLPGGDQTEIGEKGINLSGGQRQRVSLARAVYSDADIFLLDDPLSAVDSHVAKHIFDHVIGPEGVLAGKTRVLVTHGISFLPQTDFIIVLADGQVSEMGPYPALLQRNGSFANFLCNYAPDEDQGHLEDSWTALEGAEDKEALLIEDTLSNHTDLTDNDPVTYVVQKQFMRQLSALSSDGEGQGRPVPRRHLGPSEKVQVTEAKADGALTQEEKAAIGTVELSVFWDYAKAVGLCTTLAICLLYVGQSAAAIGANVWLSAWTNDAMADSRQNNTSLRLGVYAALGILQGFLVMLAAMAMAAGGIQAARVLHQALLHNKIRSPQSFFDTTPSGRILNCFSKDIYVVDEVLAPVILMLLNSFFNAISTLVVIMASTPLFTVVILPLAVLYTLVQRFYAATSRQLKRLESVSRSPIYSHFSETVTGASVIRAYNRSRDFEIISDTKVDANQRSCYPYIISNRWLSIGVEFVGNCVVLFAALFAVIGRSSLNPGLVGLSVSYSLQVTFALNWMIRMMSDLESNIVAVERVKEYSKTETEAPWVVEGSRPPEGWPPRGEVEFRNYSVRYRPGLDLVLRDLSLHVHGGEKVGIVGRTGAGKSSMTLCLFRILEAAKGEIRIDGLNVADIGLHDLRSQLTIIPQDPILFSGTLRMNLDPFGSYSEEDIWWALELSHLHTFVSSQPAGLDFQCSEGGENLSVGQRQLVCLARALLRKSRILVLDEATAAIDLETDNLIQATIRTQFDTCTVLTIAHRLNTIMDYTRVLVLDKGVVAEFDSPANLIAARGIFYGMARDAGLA

[5] = Drug concentration at steady state in human at 20 to 80 mg, po QD after 24 hrs; type: ADME, organism-based; conditions: in vivo, read-out: Css
[6] = molecular target: T1, ATP-binding cassette sub-family C member 4 (Homo sapiens, UniProt O15439); test: Inhibition of human MRP4 overexpressed in Sf9 cell membrane vesicles assessed as uptake of [3H]-estradiol-17beta-D-glucuronide in presence of ATP and GSH measured after 20 mins by membrane vesicle transport assay; type: ADME, cell-based
T1 sequence (O15439 whole entry): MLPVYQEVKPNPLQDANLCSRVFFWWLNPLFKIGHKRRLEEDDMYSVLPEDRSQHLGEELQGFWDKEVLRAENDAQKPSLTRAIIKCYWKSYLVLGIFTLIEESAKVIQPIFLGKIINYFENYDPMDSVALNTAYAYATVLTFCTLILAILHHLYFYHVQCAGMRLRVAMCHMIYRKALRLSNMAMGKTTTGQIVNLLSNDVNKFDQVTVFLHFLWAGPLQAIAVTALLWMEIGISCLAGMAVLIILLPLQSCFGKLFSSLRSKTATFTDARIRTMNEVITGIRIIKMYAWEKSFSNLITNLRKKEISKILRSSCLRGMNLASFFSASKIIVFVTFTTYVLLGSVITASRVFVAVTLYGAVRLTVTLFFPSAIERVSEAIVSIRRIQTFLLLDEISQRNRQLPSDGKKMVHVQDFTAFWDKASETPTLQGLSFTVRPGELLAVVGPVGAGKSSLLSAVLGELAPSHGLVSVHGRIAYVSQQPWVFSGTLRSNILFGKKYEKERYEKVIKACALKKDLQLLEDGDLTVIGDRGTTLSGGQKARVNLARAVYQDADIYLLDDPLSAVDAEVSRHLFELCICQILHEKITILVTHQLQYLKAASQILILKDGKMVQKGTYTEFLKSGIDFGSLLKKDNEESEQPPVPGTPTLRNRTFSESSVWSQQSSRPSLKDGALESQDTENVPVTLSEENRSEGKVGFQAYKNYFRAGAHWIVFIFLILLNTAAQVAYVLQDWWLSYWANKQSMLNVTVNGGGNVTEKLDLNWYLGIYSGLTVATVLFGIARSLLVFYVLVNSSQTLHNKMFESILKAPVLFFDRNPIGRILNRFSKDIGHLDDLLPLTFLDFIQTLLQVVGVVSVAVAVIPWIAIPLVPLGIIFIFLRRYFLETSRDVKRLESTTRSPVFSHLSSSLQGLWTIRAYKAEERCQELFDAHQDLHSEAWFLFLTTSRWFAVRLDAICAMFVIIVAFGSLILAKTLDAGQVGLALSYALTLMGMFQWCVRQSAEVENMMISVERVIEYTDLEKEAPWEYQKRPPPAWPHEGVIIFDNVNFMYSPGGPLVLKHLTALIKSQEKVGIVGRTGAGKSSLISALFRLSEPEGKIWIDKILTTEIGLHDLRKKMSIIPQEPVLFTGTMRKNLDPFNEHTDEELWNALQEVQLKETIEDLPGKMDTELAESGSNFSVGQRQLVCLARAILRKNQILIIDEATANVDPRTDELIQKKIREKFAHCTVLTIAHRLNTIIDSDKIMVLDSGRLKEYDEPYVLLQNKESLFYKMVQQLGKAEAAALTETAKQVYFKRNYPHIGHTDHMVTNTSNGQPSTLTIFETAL

[7] = molecular target: ATP-binding cassette sub-family C member 2 (Homo sapiens, UniProt Q92887); test: Inhibition of human MRP2 overexpressed in Sf9 cell membrane vesicles assessed as uptake of [3H]-estradiol-17beta-D-glucuronide in presence of ATP and GSH measured after 20 mins by membrane vesicle transport assay
Chain of ATP-binding cassette sub-family C member 2 (Q92887 whole entry): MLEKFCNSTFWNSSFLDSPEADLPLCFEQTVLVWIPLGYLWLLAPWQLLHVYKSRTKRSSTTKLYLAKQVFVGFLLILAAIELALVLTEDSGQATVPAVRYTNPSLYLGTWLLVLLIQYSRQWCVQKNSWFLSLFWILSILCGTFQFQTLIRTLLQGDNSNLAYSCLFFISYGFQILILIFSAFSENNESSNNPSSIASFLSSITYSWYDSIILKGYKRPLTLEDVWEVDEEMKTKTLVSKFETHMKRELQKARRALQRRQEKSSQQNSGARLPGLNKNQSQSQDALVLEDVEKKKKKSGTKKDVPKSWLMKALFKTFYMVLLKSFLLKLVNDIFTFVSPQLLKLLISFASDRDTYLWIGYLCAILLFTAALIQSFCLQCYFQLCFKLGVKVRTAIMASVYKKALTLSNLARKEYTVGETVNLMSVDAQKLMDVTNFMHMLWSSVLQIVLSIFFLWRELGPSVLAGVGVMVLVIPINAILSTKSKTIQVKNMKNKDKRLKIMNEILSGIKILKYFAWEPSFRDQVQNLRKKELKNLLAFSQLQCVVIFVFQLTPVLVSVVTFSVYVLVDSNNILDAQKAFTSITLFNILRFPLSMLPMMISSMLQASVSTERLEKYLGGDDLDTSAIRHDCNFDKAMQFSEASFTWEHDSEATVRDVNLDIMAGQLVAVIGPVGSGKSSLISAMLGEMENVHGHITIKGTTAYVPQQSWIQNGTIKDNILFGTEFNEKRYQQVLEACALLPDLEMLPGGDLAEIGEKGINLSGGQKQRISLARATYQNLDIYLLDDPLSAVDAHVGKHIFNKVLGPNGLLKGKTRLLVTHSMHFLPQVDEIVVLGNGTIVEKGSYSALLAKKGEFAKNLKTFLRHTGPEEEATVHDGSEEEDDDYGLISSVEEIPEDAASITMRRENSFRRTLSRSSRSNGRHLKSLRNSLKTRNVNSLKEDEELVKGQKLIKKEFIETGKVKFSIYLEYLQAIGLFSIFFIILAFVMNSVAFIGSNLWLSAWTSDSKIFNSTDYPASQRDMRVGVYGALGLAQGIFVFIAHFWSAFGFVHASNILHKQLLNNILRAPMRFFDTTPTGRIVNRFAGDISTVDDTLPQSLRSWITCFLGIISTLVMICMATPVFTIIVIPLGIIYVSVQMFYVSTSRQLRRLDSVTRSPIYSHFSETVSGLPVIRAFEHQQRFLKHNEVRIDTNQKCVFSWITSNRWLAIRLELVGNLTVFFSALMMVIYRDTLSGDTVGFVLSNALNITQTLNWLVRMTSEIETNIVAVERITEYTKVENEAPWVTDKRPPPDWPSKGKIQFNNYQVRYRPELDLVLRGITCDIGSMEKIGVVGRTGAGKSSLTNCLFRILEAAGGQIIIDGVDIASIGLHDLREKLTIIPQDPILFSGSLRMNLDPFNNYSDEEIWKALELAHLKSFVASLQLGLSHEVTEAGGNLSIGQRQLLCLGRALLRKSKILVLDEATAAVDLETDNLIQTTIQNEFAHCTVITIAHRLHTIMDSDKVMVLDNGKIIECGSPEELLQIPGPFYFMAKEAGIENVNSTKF

[8] = AUC in human at 5 to 10 mg, po QD after 24 hrs; type: ADME, organism-based; conditions: in vivo
[9] = Ratio of drug concentration at steady state in human at 5 to 10 mg, po QD after 24 hrs to IC50 for human BSEP overexpressed in Sf9 insect cells; type: ADME, organism-based; conditions: in vivo
[10] = Drug concentration at steady state in human at 5 to 10 mg, po QD after 24 hrs; type: ADME, organism-based; conditions: in vivo, read-out: Css
Bile salt export pump = Bile salt export pump (Homo sapiens, UniProt O95342); test: Inhibition of human BSEP overexpressed in Sf9 cell membrane vesicles assessed as uptake of [3H]-taurocholate in presence of ATP measured after 15 to 20 mins by membrane vesicle transport assay; type: ADME, cell-based
Chain of Bile salt export pump (O95342 whole entry): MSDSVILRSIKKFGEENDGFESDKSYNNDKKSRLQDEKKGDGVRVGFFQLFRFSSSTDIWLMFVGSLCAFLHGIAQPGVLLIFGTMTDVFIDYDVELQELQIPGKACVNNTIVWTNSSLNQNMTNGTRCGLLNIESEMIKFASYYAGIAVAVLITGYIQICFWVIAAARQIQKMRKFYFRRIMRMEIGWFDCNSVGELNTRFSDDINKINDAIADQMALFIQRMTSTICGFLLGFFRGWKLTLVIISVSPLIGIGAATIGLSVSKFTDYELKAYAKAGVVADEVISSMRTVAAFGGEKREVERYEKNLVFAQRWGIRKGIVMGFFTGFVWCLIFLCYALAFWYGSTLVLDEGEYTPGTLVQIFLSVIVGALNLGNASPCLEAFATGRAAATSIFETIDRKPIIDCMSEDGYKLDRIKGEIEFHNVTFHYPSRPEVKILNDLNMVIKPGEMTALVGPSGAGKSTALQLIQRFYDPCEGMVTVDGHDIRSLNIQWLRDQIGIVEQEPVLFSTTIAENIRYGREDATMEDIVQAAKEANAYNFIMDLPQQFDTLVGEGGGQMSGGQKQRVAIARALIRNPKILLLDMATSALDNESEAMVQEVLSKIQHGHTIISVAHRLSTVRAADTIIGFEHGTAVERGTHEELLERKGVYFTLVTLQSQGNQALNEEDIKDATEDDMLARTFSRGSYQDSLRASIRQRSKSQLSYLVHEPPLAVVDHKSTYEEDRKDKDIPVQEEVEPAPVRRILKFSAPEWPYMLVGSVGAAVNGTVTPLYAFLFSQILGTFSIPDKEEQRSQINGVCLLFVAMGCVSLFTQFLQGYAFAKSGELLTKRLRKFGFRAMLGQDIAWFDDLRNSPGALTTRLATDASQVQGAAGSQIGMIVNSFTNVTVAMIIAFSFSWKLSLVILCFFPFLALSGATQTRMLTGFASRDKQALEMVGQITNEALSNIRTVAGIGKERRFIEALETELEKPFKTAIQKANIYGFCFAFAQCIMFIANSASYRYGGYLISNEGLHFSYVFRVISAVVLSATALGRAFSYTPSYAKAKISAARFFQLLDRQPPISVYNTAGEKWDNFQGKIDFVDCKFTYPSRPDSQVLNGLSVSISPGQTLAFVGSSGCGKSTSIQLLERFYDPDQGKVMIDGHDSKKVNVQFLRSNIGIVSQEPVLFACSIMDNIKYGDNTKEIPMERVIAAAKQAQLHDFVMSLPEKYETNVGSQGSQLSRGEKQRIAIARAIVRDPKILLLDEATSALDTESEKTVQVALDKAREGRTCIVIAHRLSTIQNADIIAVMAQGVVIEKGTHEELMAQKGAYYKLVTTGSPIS

CC(C)n1c(/C=C/C(O)CC(O)CC(=O)O)c(-c2ccc(F)cc2)c2ccccc21 (stereo not drawn) [FLUVASTATIN]
Ratio [1]: 0.001
Ratio [2]: 0.002
AUC at 24 h [3]: 1490 nM·h
IC50 [4]: 57 µM
concentration at 24 h [5]: 0.062 µM
IC50 [6]: > 133 µM

CC(C)(C)C(=O)OCOP(=O)(COCCn1cnc2c(N)ncnc21)OCOC(=O)C(C)(C)C [ADEFOVIR DIPIVOXIL]
IC50 [7]: > 133 µM
AUC at 24 h [8]: 765 nM·h
Ratio [9]: 0.00069
IC50 [4]: > 133 µM
concentration at 24 h [10]: 0.032 µM
IC50 (Bile salt export pump): 46 µM
IC50 [6]: > 133 µM

CC(C)C[C@H](NC(=O)[C@@H](COC(C)(C)C)NC(=O)[C@H](Cc1ccc(O)cc1)NC(=O)[C@H](CO)NC(=O)[C@H](Cc1c[nH]c2ccccc12)NC(=O)[C@H](Cc1cnc[nH]1)NC(=O)[C@@H]1CCC(=O)N1)C(=O)N[C@@H](CCCNC(=N)N)C(=O)N1CCC[C@H]1C(=O)NNC(N)=O [GOSERELIN ACETATE]
IC50 [7]: > 133 µM
IC50 [4]: > 133 µM
IC50 (Bile salt export pump): > 133 µM
IC50 [6]: > 133 µM

NC[C@H]1O[C@H](O[C@H]2[C@H](O)[C@@H](O[C@H]3O[C@H](CO)[C@@H](O)[C@H](N)[C@H]3O)[C@H](N)C[C@@H]2N)[C@H](O)[C@@H](O)[C@@H]1O [KANAMYCIN]
IC50 [7]: > 133 µM
IC50 [4]: > 133 µM
IC50 (Bile salt export pump): > 133 µM
IC50 [6]: > 133 µM

N=C(N)NC(=O)Cc1c(Cl)cccc1Cl [GUANFACINE]
IC50 [7]: > 133 µM
IC50 [4]: > 133 µM
IC50 (Bile salt export pump): > 133 µM
IC50 [6]: > 133 µM

O=C(CCCCCCC(=O)Nc1ccccc1)NO [VORINOSTAT]
IC50 [7]: > 133 µM
IC50 [4]: > 133 µM
IC50 (Bile salt export pump): > 133 µM
IC50 [6]: > 133 µM

O=C(O)c1ccccc1-c1c2ccc(=O)cc-2oc2cc(O)ccc12
IC50 [7]: > 133 µM
IC50 [4]: > 133 µM
IC50 (Bile salt export pump): > 133 µM
IC50 [6]: > 133 µM

O=c1[nH]c2ccccc2n1CCCN1CCC(n2c(=O)[nH]c3cc(Cl)ccc32)CC1 [DOMPERIDONE]
IC50 [7]: > 133 µM
IC50 [4]: > 133 µM
IC50 (Bile salt export pump): > 133 µM
IC50 [6]: > 133 µM

CC(C)OC(=O)CCC/C=C\C[C@@H]1[C@@H](/C=C/[C@@H](O)COc2cccc(C(F)(F)F)c2)[C@H](O)C[C@@H]1O [TRAVOPROST]
IC50 [7]: > 133 µM
IC50 [4]: > 133 µM
IC50 (Bile salt export pump): 43.9 µM
IC50 [6]: 74 µM

O=C(c1ccccc1)c1ccc2n1CCC2C(=O)O (stereo not drawn) [KETOROLAC TROMETHAMINE]
IC50 [7]: > 133 µM
IC50 [4]: > 133 µM
IC50 (Bile salt export pump): > 133 µM
IC50 [6]: 2.7 µM

CNC1(c2ccccc2Cl)CCCCC1=O (stereo not drawn) [KETAMINE]
IC50 [7]: > 133 µM
IC50 [4]: > 133 µM
IC50 (Bile salt export pump): > 133 µM
IC50 [6]: > 133 µM

CCn1cc(C(=O)O)c(=O)c2cc(F)c(N3CCN(C)CC3)cc21 [PEFLOXACIN]
IC50 [7]: > 133 µM
IC50 [4]: > 133 µM
IC50 (Bile salt export pump): > 133 µM
IC50 [6]: > 133 µM

CCCCCCCCCCC[C@@H](C[C@@H]1OC(=O)[C@H]1CCCCCC)OC(=O)[C@H](CC(C)C)NC=O [ORLISTAT]
IC50 [7]: > 133 µM
IC50 [4]: > 133 µM
IC50 (Bile salt export pump): > 133 µM
IC50 [6]: > 133 µM

C[C@H]1COc2c(C3(N)CC3)c(F)cc3c(=O)c(C(=O)O)cn1c23 [PAZUFLOXACIN]
IC50 [7]: > 133 µM
IC50 [4]: > 133 µM
IC50 (Bile salt export pump): > 133 µM
IC50 [6]: > 133 µM

Nc1c2c(nc3ccccc13)CCCC2 [TACRINE]
IC50 [7]: > 133 µM
IC50 [4]: > 133 µM
IC50 (Bile salt export pump): > 133 µM
IC50 [6]: 23.7 µM

CC[C@]1(O)C[C@H]2CN(CCc3c([nH]c4ccccc34)[C@@](C(=O)OC)(c3cc4c(cc3OC)N(C=O)[C@H]3[C@@](O)(C(=O)OC)[C@H](OC(C)=O)[C@]5(CC)C=CCN6CC[C@]43[C@@H]65)C2)C1 [VINCRISTINE SULFATE]
IC50 [7]: > 133 µM
IC50 [4]: > 133 µM
IC50 (Bile salt export pump): > 133 µM
IC50 [6]: > 133 µM

ClC(Cl)(Cl)Cl [CARBON TETRACHLORIDE]
IC50 [7]: > 133 µM
IC50 [4]: > 133 µM
IC50 (Bile salt export pump): > 133 µM
IC50 [6]: > 133 µM
